Values of other authors in US20100222262A1, “SUBSTITUTED 1, 3-CYCLOPENTADIONE ATTENUATED ENDOTHELIAL INFLAMMATION AND ENDOTHELIAL-MONOCYTE INTERACTIONS” (METAPROTEOMICS, LLC, priority 2008, published 2010).
Like-named read-outs stand apart in the source and are kept apart here.

System: 85 Kinases

Row | Molecule | G10 (Gini coefficient) (85 kinases, Concn 10 uM) | hit rate (>50% Inhibition) (85 kinases, Concn 10 uM) | further results
1 | COc1cc(/C=C/C(=O)CC(=O)/C=C/c2ccc(O)c(OC)c2)ccc1O [Curcumin] | – | – | G10 (Gini coefficient) (85 kinases, Concn 50 uM): 0.417; hit rate (>50% Inhibition) (85 kinases, Concn 50 uM): 38
2 | N#CC(C#N)=Cc1ccc(O)c(O)c1 [AG18] | 0.680 | 1 | –
3 | Calphostin C | 0.606 | 2 | –
4 | CCCCCCOC(=O)[C@]1(O)C[C@@H]2O[C@@]1(C)n1c3ccccc3c3c4c(c5c6ccccc6n2c5c31)C(=O)NC4 [KT5720] | – | – | G10 (Gini coefficient) (85 kinases, Concn 1 uM): 0.423; hit rate (>50% Inhibition) (85 kinases, Concn 1 uM): 33
5 | C[C@@H](N)[C@H]1CC[C@H](C(=O)Nc2ccncc2)CC1 [Y27632] | 0.628 | 13 | –
6 | O=C(O[C@@H]1Cc2c(O)cc(O)cc2O[C@@H]1c1cc(O)c(O)c(O)c1)c1cc(O)c(O)c(O)c1 [EGCG] | 0.495 | 21 | –
7 | N#C/C(=C\c1ccc(O)c(O)c1)C(=O)c1ccc(O)c(O)c1 [AG538] | 0.417 | 17 | –
8 | CN(C)S(=O)(=O)c1ccc2c(c1)/C(=C/c1cc3c([nH]1)CCCC3)C(=O)N2 [SU6656] | – | – | G10 (Gini coefficient) (85 kinases, Concn 1 uM): 0.607; hit rate (>50% Inhibition) (85 kinases, Concn 1 uM): 19
9 | O=C1NCc2c1c1c3ccccc3[nH]c1c1[nH]c3ccccc3c21 [K252c] | 0.236 | 58 | –
10 | CCOc1cc(/C=C(\C#N)C(N)=O)cc(CSc2ccccc2)c1O [ST638] | 0.568 | 14 | –
11 | COc1cc2ncnc(Nc3cccc(Cl)c3)c2cc1OC [AG1478] | 0.500 | 25 | –
12 | Cc1ccc(NC(=O)c2cccc(N(C)C)c2)cc1NC(=O)c1ccc(O)cc1 [ZM336372] | 0.635 | 11 | –
13 | Nc1ncnc2c1cnn2-c1ccccc1 [PP3] | – | – | G10 (Gini coefficient) (85 kinases, Concn 1 uM): 0.634; hit rate (>50% Inhibition) (85 kinases, Concn 1 uM): 0
14 | COc1cc2ncnc(Nc3cccc(Br)c3)c2cc1OC [PD153035] | – | – | G10 (Gini coefficient) (85 kinases, Concn 0.001 uM): 0.616; hit rate (>50% Inhibition) (85 kinases, Concn 0.001 uM): 0
15 | Cn1cc(C2=C(c3cn(CCCSC(=N)N)c4ccccc34)C(=O)NC2=O)c2ccccc21 [Ro31-8220] | – | – | G10 (Gini coefficient) (85 kinases, Concn 1 uM): 0.432; hit rate (>50% Inhibition) (85 kinases, Concn 1 uM): 39
16 | CN[C@@H]1C[C@H]2O[C@@](C)([C@@H]1OC)n1c3ccccc3c3c4c(c5c6ccccc6n2c5c31)C(=O)NC4 [Staurosporine] | – | – | G10 (Gini coefficient) (85 kinases, Concn 1 uM): 0.093
17 | O=C1c2ccccc2-c2n[nH]c3cccc1c23 [JNK inh II] | 0.445 | 35 | –
18 | O=S(=O)(NCCNC/C=C/c1ccc(Br)cc1)c1cccc2cnccc12 [H89] | 0.442 | 34 | –

Row | Molecule | G10 (Gini coefficient) (85 kinases, Concn 10 uM) | hit rate (>50% Inhibition) (85 kinases, Concn 10 uM) | further results
19 | CC(=O)c1c(O)c(C)c(O)c(Cc2c(O)c3c(c(C(=O)/C=C/c4ccccc4)c2O)OC(C)(C)C=C3)c1O [Rottlerin] | 0.595 | 3 | –
20 | O=C(O)c1cc(N(Cc2ccccc2O)Cc2ccccc2O)ccc1O [Lavendustin B] | – | – | G10 (Gini coefficient) (85 kinases, Concn 1 uM): 0.515; hit rate (>50% Inhibition) (85 kinases, Concn 1 uM): 0
21 | O=C(O)c1cc(N(Cc2ccccc2O)Cc2cc(O)ccc2O)ccc1O [Lavendustin A] | – | – | G10 (Gini coefficient) (85 kinases, Concn 1 uM): 0.726; hit rate (>50% Inhibition) (85 kinases, Concn 1 uM): 0
22 | Oc1ccc(-c2nc(-c3ccncc3)c(-c3ccc(F)cc3)[nH]2)cc1 [SB202190] | 0.553 | 29 | –
23 | COc1cc2ncc(-c3ccccc3)nc2cc1OC [AG1296] | 0.498 | 4 | –
24 | N#CC(C#N)=C(N)/C(C#N)=C/c1cc(O)c(O)c(O)c1 [AG183] | 0.460 | 14 | –
25 | CC[C@H](CO)Nc1nc(NCc2ccccc2)c2ncn(C(C)C)c2n1 [Roscovitine] | – | – | G10 (Gini coefficient): 0.744; hit rate (>50% Inhibition): 10
26 | CC(C)(C)n1nc(-c2ccc(Cl)cc2)c2c(N)ncnc21 [PP2] | – | – | G10 (Gini coefficient) (85 kinases, Concn 1 uM): 0.722; hit rate (>50% Inhibition) (85 kinases, Concn 1 uM): 14
27 | O=S(=O)(c1cccc2cnccc12)N1CCCNCC1 [HA1077] | 0.650 | 19 | –
28 | CC(C)(C)c1cc(C=C(C#N)C#N)cc(Br)c1O [AG1024] | 0.568 | 11 | –
29 | O=c1c(-c2ccc(O)cc2)coc2cc(O)cc(O)c12 [Genistein] | 0.582 | 0 | –
30 | CO[C@H]1[C@@H](OC)C[C@H](C)[C@@H](OC)C2=CC(=O)C=C(NC(=O)/C(C)=C/C=C\[C@H](OC)[C@@H](OC(N)=O)/C(C)=C/[C@@H]1C)C2=O [Herbimycin A] | 0.534 | 0 | –
31 | O=c1cc(O)cc(/C=C/c2ccc(O)c(O)c2)o1 [Hispidin] | 0.790 | 2 | –
32 | Cn1cnc2c(NCc3ccccc3)nc(NCCO)nc21 [Olomoucin] | – | – | G10 (Gini coefficient) (85 kinases, Concn 50 uM): 0.556; hit rate (>50% Inhibition) (85 kinases, Concn 50 uM): 13
33 | C[S+]([O-])c1ccc(-c2nc(-c3ccncc3)c(-c3ccc(F)cc3)[nH]2)cc1 (stereo not drawn) [SB203580] | – | – | G10 (Gini coefficient): 0.621; hit rate (>50% Inhibition): 17
34 | O=C1Cc2c([nH]c3ccc([N+](=O)[O-])cc23)-c2ccccc2N1 [Alsterpaullone] | – | – | G10 (Gini coefficient) (85 kinases, Concn 1 uM): 0.633; hit rate (>50% Inhibition) (85 kinases, Concn 1 uM): 22
35 | O=C(NOCC1CC1)c1ccc(F)c(F)c1Nc1ccc(I)cc1Cl [PD184352] | 0.802 | 1 | –
